Test results reported in ChEMBL document CHEMBL1138646, “Carbonic anhydrase inhibitors: inhibition of the membrane-bound human isozyme IV with anions” (Bioorg Med Chem Lett, 2004).
Several values for one entry are separate records, joined by “and”; a condition that tells them apart may be missing. Equal values may be shown once.

Legend:
Carbonic anhydrase 9 = Carbonic anhydrase 9 (Homo sapiens, UniProt Q16790)
Description: Inhibition constant of anion against human carbonic anhydrase isozyme hCA IX

Carbonic anhydrase 4 [1] = biological target: T1, Carbonic anhydrase 4 (Homo sapiens, UniProt P22748)
T1 sequence (P22748 whole entry): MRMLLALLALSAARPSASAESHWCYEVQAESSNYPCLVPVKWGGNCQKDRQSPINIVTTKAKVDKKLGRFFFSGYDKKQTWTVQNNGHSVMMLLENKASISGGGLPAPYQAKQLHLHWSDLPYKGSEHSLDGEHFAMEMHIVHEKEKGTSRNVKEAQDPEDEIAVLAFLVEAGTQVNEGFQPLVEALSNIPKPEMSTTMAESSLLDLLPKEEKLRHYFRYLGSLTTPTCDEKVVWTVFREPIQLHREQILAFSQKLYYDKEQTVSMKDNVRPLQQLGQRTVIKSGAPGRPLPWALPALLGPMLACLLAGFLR
Description: Inhibition constant of anion against human carbonic anhydrase isozyme hCA IV

Carbonic anhydrase V [2] = biological target: T2, Carbonic anhydrase V (Homo sapiens, UniProt Q9Y2D0+P35218); format: protein assay
Description: Inhibition constant of anion against human carbonic anhydrase isozyme hCA V

Carbonic anhydrase 4 [3] = biological target: T1, Carbonic anhydrase 4; assay: Inhibition constant against human carbonic anhydrase isozyme hCA IV
Carbonic anhydrase V [4] = biological target: T2, Carbonic anhydrase V; assay: Inhibition constant against human carbonic anhydrase isozyme hCA V; format: protein assay

Structure (SMILES) | Ki (Carbonic anhydrase 9) | Ki (Carbonic anhydrase 4 [1]) | Ki (Carbonic anhydrase V [2]; read-out: Ki) | Ki (Carbonic anhydrase V [2]) | Ki (Carbonic anhydrase 4 [3]) | Ki (Carbonic anhydrase V [4])
O=C(O)O [BICARBONATE] | 13 mM | 6.6 mM and 5.7 mM | 82 mM and 95 mM | – | – | –
Br [BROMIDE] | 16 mM | 0.09 mM | 50 mM | – | – | –
N#CO [CYANATE] | 0.04 mM | 0.61 mM | 0.02 mM | – | – | –
F [FLUORIDE ION] | 48 mM | 0.07 mM | 241 mM | – | – | –
Cl [HYDROCHLORIC ACID] | 33 mM | 0.09 mM | – | 156 mM | – | –
S [HYDROGEN SULFIDE] | 0.007 mM | 3.9 mM | – | 0.02 mM | – | –
I [IODIDE] | 7 mM | 0.08 mM | – | 25 mM | – | –
O=[N+]([O-])O [NITRIC ACID] | 46 mM | 58.7 mM | – | 16 mM | – | –
O=NO [NITROUS ACID] | – | 30.8 mM | 16 mM | – | – | –
OB(O)c1ccccc1 [PHENYLBORONIC ACID] | – | – | – | – | 0.00088 mM | 4.5 mM
NS(=O)(=O)O [SULFAMATE] | – | – | – | – | 0.00093 mM | 0.12 mM
O=S(=O)(O)O [SULFURIC ACID] | – | 9 mM | – | 680 mM | – | –
O=S(O)O [SULFUROUS ACID] | – | 13.2 mM | 65 mM | – | – | –
N#CS [THIOCYANIC ACID] | 0.13 mM | 39 mM | 0.74 mM | – | – | –
